According to patent US20240315994A1, “SMALL MOLECULE MODULATORS OF FERROPTOSIS” (ARPEGGIO BIOSCIENCES, INC., priority 2021, published 2024):

Columns and labels:
[1] = target: T1, recombinant GPX4 protein (Homo sapiens, UniProt P36969); test: GPX4 inhibitor screening assay (Cayman Chemical cat #701880); format: biochemical; details: 25 μM, one hour incubation; RSL3 without the 14-3-3 adapter protein
T1 construct: purchased Cayman Chemical SO960203
T1 sequence (P36969 1-197): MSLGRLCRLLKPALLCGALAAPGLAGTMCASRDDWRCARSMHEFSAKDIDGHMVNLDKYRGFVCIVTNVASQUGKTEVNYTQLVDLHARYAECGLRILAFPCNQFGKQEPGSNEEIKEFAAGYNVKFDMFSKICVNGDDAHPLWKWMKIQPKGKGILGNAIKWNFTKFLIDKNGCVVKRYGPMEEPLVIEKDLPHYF
Experimental: To determine whether the five ferroptosis-inducing compounds (1816, 8216, 3362, 1962, and 0973) inhibit GPX4 enzymatic activity in vitro, we used a commercially available GPX4 inhibitor screening kit (Cayman Chemical cat #701880). This assay measures a compound's ability to prevent cumene hydroperoxide reduction by recombinant GPX4 protein. Briefly, the five ferroptosis-inducing compounds (25 μM) were incubated with recombinant GPX4 protein for one hour before being run in the Cayman Chemicals GPX4 inhibitor screening assay according to manufacturer's recommendations. The assay read out is a change in absorbance between NADPH and NADP. ML162 (25 μM) and RSL3 (25 μM) were used as positive control compounds.
An enzymatic assay that measures the reduction of […] by GPX4 was used to test the ability of compounds 8216, 6666, 8147, and 3793 to inhibit the activity of GPX4. The enzymatic assay was performed using a commercially available kit (Cayman cat #701880). The compounds were tested at 8 concentrations in duplicate with the compound being diluted following manufacturer's instructions. The enzymatic reaction was allowed to continue for 1 hour prior to reading out the kinetic shift in absorbance that occurs as result of GPX4 […].

[2] = system: HMOX1 expression in HT-1080 fibrosarcoma cells; test: HMOX1 induction by RT-qPCR in HT-1080 cells; format: cell-based
Experimental: We tested several of our ferroptosis-inducing compounds for their ability to rapidly induce HMOX1 by RT-qPCR. Briefly, HT-1080 fibrosarcoma cells were treated with either 10 µM or 5 µM of compound RSL3, 8216, 1962, 1816, or 3362 for four hours. RNA was isolated and reverse transcribed and HMOX1 expression quantified by qPCR. Each sample was normalized to an ACTB housekeeping gene control and fold change was calculated relative to a DMSO control.
We tested several of the ferroptosis-inducing compounds for their ability to rapidly induce expression of HMOX1. Briefly, HT-1080 fibrosarcoma cells were plated in 6-well dishes 24 hours prior to treatment with 5 μM of 8147, 6047, 3793, Rsl3, 6666 or 8216 with and without the addition of ferrostatin-1 to the media. Cells were harvested from the plate after 4 hours of compound treatment by adding Trizol reagent directly to the plate to lyse the cells and preserve the RNA. RNA was isolated using the Direct-zol 96-well RNA kit (Zymo cat #R2054). Subsequently purity and quantity of RNA in the samples were measured using a Nanodrop (Thermo Fisher cat #ND-ONE-W). RNA samples were normalized to 2 μg and reverse transcribed to cDNA using the Multiscribe High-Capacity Reverse Transcription kit (Thermo Fisher cat #4368814) following manufacturer's instructions. Quantitative real time PCR was carried out in triplicate using SYBR Select Master Mix (Thermo Fisher cat #4472903) following manufacturer's instructions with primers designed against HMOX1 and ActB from IDT. HMOX1 expression levels were normalized to ActB for each sample then fold change was determined against the vehicle control, DMSO.

[3] = system: HT-1080 fibrosarcoma cells; test: HT-1080 single-concentration cell viability screen (Cell Titer Glo); format: cell-based; details: 10 μM compound, 48 hours, duplicate, fraction of control
Source text: To identify potential covalent inhibitors of GPX4, we screened a panel of 294 diverse small molecules from the Enamine covalent inhibitor library (Catalog No. CSL-10480-0-Z-10, Enamine, Monmouth, NJ). Each compound contains either a chloroacetamide or acrylamide moiety theoretically capable of forming a covalent bond with a selenocysteine. The small molecule compounds were selected for a diversity of backbone structures. The screening protocol used the cell viability assay Cell Titer Glo® (available from Promega, Madison, WI). Cell Titer Glo® is a luminescent cell viability that determines the number of viable cells in culture by quantifying ATP, which indicates the presence of metabolically active cells. Briefly, HT-1080 fibrosarcoma cells were plated 24 hours prior to treatment with 10 µM of each compound in the screening panel. Cell Titer Glo® was used to read out cell viability after 48 hours of compound exposure. Data was collected in duplicate.
To determine whether similar molecules could offer other starting points for a medicinal chemistry campaign, we screened 95 additional compounds that contain a similar base structure to that of 8216. Briefly, HT-1080 fibrosarcoma cells were treated with 10 µM of a compound for 48 hours and cell viability was measured by Cell Titer Glo®. Data was collected in duplicate. […]

[4] = system: HMOX1 gene transcription in IMR90 lung fibroblast cells; test: PRO-seq transcriptional response (HMOX1) in IMR90 cells; format: cell-based; details: one hour, RSL3 1 μM, ML162 1 μM, erastin 10 μM
Source text: Expression of heme oxygenase 1 (HMOX1) mRNA may be used as a molecular response biomarker for induction of ferroptosis by direct inhibition of GPX4. To distinguish the transcriptional responses elicited by direct versus indirect inhibitors of GPX4, we profiled two direct GPX4 inhibitors, RSL3 and ML162, as well as one system Xc inhibitor, erastin, by Precision Run On followed by sequencing (PRO-seq) in IMR90 lung fibroblast cells. Briefly, IMR90 lung fibroblasts cells (a ferroptosis sensitive cell line) were treated with GPX inhibitors (RSL3 1 μM, ML162 1 μM) or system Xc inhibitor (erastin 10 µM) for one hour and samples were subjected to PRO-seq.

## COC(=O)c1ccc([C@@H]2c3[nH]c4ccccc4c3C[C@@H](C(=O)OC)N2C(=O)CCl)cc1 [RSL3, reference compound]
[1]
  reduction in GPX4 enzymatic activity: about 55%
[2]; 5 μM, 4 hours, with and without ferrostatin-1
  HMOX1 upregulation and rescue by ferrostatin-1 (RT-qPCR): upregulation of HMOX1 which was rescued by the addition of ferrostatin-1, to varying degrees
[2]; 10 μM or 5 μM, four hours, normalized to ACTB, relative to DMSO
  HMOX1 induction (RT-qPCR): induces HMOX1 dose-dependently
[3]
  Average relative cell viability: 0.00933
[4]
  HMOX1 transcriptional activation (PRO-seq): robust transcriptional activation of the HMOX1 gene at one hour
